Source: patent US20260174854A1, “Systems And Methods For Imaging Diverse Pathogenic Bacteria In Vivo With [18F]Fluoromannitol Positron Emission Tomography” (priority 2022, published 2026)
“Also recorded” adds a separate entry of the source.

Columns and labels:
E. coli [1] = assay: mixed infection (polymicrobial) myositis model, PET/CT, E. coli-infected right triceps brachii; type: in vivo, mice; conditions: for postmortem gamma counting of tissues: E. coli-infected muscle; for E. coli SUV, [^18F]FMtl versus [^18F]FDS: P=0.11
Excerpt: (§1) Referring now to FIGS. 3A-3B, the sensitivity of [^18F]FMtl compared to [^18F]FDS was also investigated in a mixed infection (polymicrobial) model. [^18F]FDS has shown remarkable specificity for Enterobacteriaceae in vivo, but has limited to no sensitivity toward gram-positive and other gram-negative organisms. Mice were inoculated with live E. coli (8.4×10^6 CFU) and S. aureus (8.8×10^6 CFU) in the right and left triceps brachii, respectively.

S. aureus [2] = assay: in vitro accumulation of radiotracer in S. aureus cultures (gamma counts); type: cell-based; conditions: for accumulation in S. aureus cultures, tracer comparison: FIG. 1D, FMtl vs FDS P<0.001
Protocol: (§2) Accumulation of [^18F]FMtl was also evaluated in a broad panel of bacterial strains.

S. aureus [3] = assay: mixed infection (polymicrobial) myositis model, PET/CT, S. aureus-infected left triceps brachii; type: in vivo, mice; conditions: for postmortem gamma counting of tissues: S. aureus-infected muscle
Excerpt: as §1

S. aureus [4] = assay: competitive uptake assay of [^18F]FMtl in the presence of unlabeled D-mannitol; type: cell-based; conditions: co-incubation in S. aureus cultures, FIG. 1C
Protocol: FIG. 1C is a graph showing a competitive uptake assay of [^18F]FMtl in the presence of unlabeled D-mannitol in S. aureus;
as §2

S. aureus [5] = assay: serial [^18F]FMtl PET during vancomycin treatment of S. aureus myositis; type: in vivo, mice; conditions: FIG. 7A
Protocol: A growing incidence of antimicrobial resistance in many bacterial pathogens is a serious concern, as treatment failure is a major threat to global health. Inappropriate antibiotic use is also the primary driver of antibiotic resistance, which places undue risk onto patients for adverse events such as allergic reactions and C. difficile infection. […] Mice were inoculated with S. areus in the right triceps brachii and imaged 8 hours post-infection with [^18F]FMtl, prior to initiation of vancomycin treatment (100 mg/kg every 8 hours, IP) and subsequently imaged at 24 and 72 hours post-treatment. […] The accumulation of [^18F]FMtl was further investigated in a panel of bacterial isolates from infected combat wounds of military service members (see FIG. 7B).

live strain of bacteria = assay: murine myositis model, infection vs sterile inflammation, PET SUV / Patlak / CFU correlation (strain not stated at the result); type: in vivo, mice
Excerpt: (§3) Referring now to FIGS. 2A-2D, a murine myositis model of musculoskeletal infection was used to determine whether [^18F]FMtl could differentiate sterile inflammation from infection in vivo by inoculating the right triceps brachii with a live strain of bacteria and the left triceps brachii with 10× heat-killed bacteria to generate an inflammatory response.
To quantify PET signal, volumes of interest (VOIs) were generated in the upper limbs of mice using CT for anatomical localization. […] Biodistribution studies were performed in successive cohorts of mice over 3 hours to determine dosimetry of [^18F]FMtl. […] Static PET SUV were correlated with bacterial colony-forming units (CFU) from excised tissue to determine sensitivity of [^18F]FMtl (see FIG. 2C), indicating [^18F]FMtl can reliably detect as little as 5 log10 (CFU/mL) of bacteria in vivo by SUV. It was also investigated whether parametric mapping could increase bacterial sensitivity of [^18F]FMtl in vivo, as Patlak slope (K,) is a quantitative measure of rate of uptake in tissue, rather than SUV, which is semi-quantitative and cannot delineate signal from blood pool contamination and tissue. Parametric imaging improved the bacterial sensitivity of [^18F]FMtl by roughly 20-fold (log10 CFU=1.3; 1.7×10^6 improved to […]) (see FIG. 2D).

E. coli [6] = assay: in vitro accumulation of radiotracer in E. coli cultures (gamma counts); type: cell-based
Protocol: as §2

[7] = test system: broad panel of bacterial strains; assay: uptake in a broad panel of bacterial strains (pathogens of clinical interest); type: cell-based; conditions: 60 minutes of incubation, FIG. 1B
Protocol: FIG. 1B is a graph showing uptake of [^18F]FMtl in pathogens of clinical interest, determined at 60 minutes of incubation;
as §2

E. coli [8] = assay: murine myositis model, live vs 10× heat-killed bacteria, PET imaging (E. coli); type: in vivo, mice; conditions: gram-negative strain; infected vs inflamed triceps brachii, FIG. 2A
Excerpt: as §3

S. aureus [9] = assay: murine myositis model, live vs 10× heat-killed bacteria, PET imaging (S. aureus); type: in vivo, mice; conditions: gram-positive strain; infected vs inflamed triceps brachii, FIG. 2A
Excerpt: as §3

A. baumannii = assay: laceration wound model infected with A. baumannii, [^18F]FMtl PET; type: in vivo; conditions: A. baumannii and several other ESKAPE pathogens
Excerpt: In an exemplary embodiment, [^18F]FMtl was able to differentiate sterile inflammation and bacterial infection resulting from S. aureus and E. coli in vivo in a murine myositis model using PET imaging. Exemplary embodiments of the present disclosure were extended to a laceration wound model infected with A. baumannii, an important pathogen in the nosocomial and battlefield setting. […] [^18F]FMtl PET was also able to monitor therapeutic efficacy of vancomycin against S. aureus in vivo. The ease of production of [^18F]FMtl facilitates wide dissemination from any radiopharmacy.

OC[C@@H](O)[C@@H](O)[C@H](O)[C@@H]([18F])CO [[^18F]FDS, 2-[^18F]fluoro-2-deoxy-sorbitol]
postmortem gamma counting of tissues (E. coli [1]): only accumulated in E. coli-infected muscle
specificity, E. coli compared to S. aureus infection (E. coli [1]; P=0.007): high specificity for E. coli compared to S. aureus
E. coli SUV, [^18F]FMtl versus [^18F]FDS (E. coli [1]): no significant differences
accumulation in S. aureus cultures, tracer comparison (S. aureus [2]): not significantly different to negative control
postmortem gamma counting of tissues (S. aureus [3]): only accumulated in E. coli-infected muscle

OC[C@@H](O)[C@@H](O)[C@H](O)[C@H](O)CO [D-mannitol]
concentration of D-mannitol that blocked [^18F]FMtl accumulation in bacteria (S. aureus [4]): ≥ 10 µg/mL

CN[C@H](CC(C)C)C(=O)N[C@H]1C(=O)N[C@@H](CC(N)=O)C(=O)N[C@H]2C(=O)N[C@H]3C(=O)N[C@H](C(=O)N[C@H](C(=O)O)c4cc(O)cc(O)c4-c4cc3ccc4O)[C@H](O)c3ccc(c(Cl)c3)Oc3cc2cc(c3O[C@@H]2O[C@H](CO)[C@@H](O)[C@H](O)[C@H]2O[C@H]2C[C@](C)(N)[C@H](O)[C@H](C)O2)Oc2ccc(cc2Cl)[C@H]1O [vancomycin, reference compound]
[^18F]FMtl PET signal during treatment (S. aureus [5]; vancomycin 100 mg/kg every 8 hours, IP, imaged 8 hours post-infection, 24 and 72 hours post-treatment): diminished over the course of treatment

2-[^18F]fluoro-2-deoxy-glucose [[^18F]FDG, reference compound]
differences in SUV between sites of infection and inflammation (live strain of bacteria; FIG. 2B): unable to demonstrate significant differences in SUV
ability to distinguish infection from inflammation (PET) (live strain of bacteria; infected vs inflamed triceps brachii): unable to distinguish infection from inflammation

OC[C@@H](O)[C@@H](O)[C@H](O)[C@H]([18F])CO [[^18F]FMtl, [^18F]fluoromannitol]
accumulation in E. coli cultures, tracer comparison (E. coli [6]; FIG. 1D): accumulated
incorporation of tracer over time (E. coli [6]; heat-killed bacteria): not heat-killed bacteria
incorporation of tracer over time (E. coli [6]; live E. coli cultures): readily incorporated
strains excepted from rapid and significant accumulation [7]: P. aeruginosa and E. faecium
accumulation in bacterial strains ([7]; all strains tested except P. aeruginosa and E. faecium): rapid and significant accumulation
postmortem gamma counting of tissues (E. coli [1]): uptake in both S. aureus and E. coli
E. coli SUV, [^18F]FMtl versus [^18F]FDS (E. coli [1]): no significant differences
accumulation in S. aureus cultures, tracer comparison (S. aureus [2]): significantly higher
accumulation in S. aureus versus E. coli cultures (S. aureus [2]; P=0.64): not significantly different
incorporation of tracer over time (S. aureus [2]; heat-killed bacteria): not heat-killed bacteria
incorporation of tracer over time (S. aureus [2]; live S. aureus cultures, FIG. 1A): readily incorporated
relation of PET signal to CFU burden during treatment (S. aureus [5]; vancomycin treatment): correlating closely with CFU burden
accumulation at site of infection (PET) (E. coli [8]): specifically accumulated in the site of infection
bacterial sensitivity with parametric imaging (live strain of bacteria; Patlak parametric mapping): 7.0×10^5 CFU
bacterial sensitivity before parametric imaging (live strain of bacteria; SUV): 1.7×10^6 CFU
time post-injection to significant differences in PET signal (infection detected and differentiated) (live strain of bacteria; dynamic imaging, intravenous injection): 5 min
gamma counting of excised triceps brachii after scans (live strain of bacteria; ex vivo, infected vs inflamed tissue): increased PET signal in the infected tissue compared to inflamed
bacteria reliably detected in vivo using the clinical standard SUV (live strain of bacteria; mouse, in vivo): 10^5 CFU
sensitivity between E. coli and S. aureus (live strain of bacteria; mouse, in vivo): did not diminish
bacteria reliably detected in vivo by SUV (sensitivity) (live strain of bacteria; static PET SUV correlated with CFU from excised tissue, FIG. 2C): 5 log10 (CFU/mL)
increase of standardized uptake value (SUV) at infection compared to contralateral site of inflammation (live strain of bacteria; summed frames 45-60 minutes post-injection, FIG. 2B): 3.5 fold
SUV / accumulation, E. coli versus S. aureus infection in the same animal (S. aureus [3]; E. coli 8.4×10^6 CFU right, S. aureus 8.8×10^6 CFU left, P=0.19): No significant differences in SUV; also recorded: indistinguishable accumulation
accumulation in S. aureus infection, compared to [^18F]FDS (S. aureus [3]; P<0.001): significantly higher
postmortem gamma counting of tissues (S. aureus [3]): uptake in both S. aureus and E. coli
accumulation at site of infection (PET) (S. aureus [9]): specifically accumulated in the site of infection
detection of infection by PET (A. baumannii): rapidly and specifically detected
